Read-outs that look alike come from different tables or passages of the source.
Columns and labels:
HeLa cells = details: human
Vero cells = details: monkey
cancer in patients = assay: Treatment of individual cancer patients (clinical parameters and tumor markers); assay type: in vivo, human; details: monotherapy, in words
Procedure: The arrow symbol represents the timepoint at which docetaxel was reduced to 60 mg/m2.

Vaccinia = assay: microbe, parasite or virus in culture; assay type: cell-based; details: Orthopoxvirus vaccinia, Vero C1008
Caki-1 cells = assay: Caki-1 renal cell carcinoma xenograft (VHL-positive), tumor volume; assay type: in vivo, mice; details: for Tumor size (mean±SD): PO
Procedure: The Caki-1 cell line expresses the von Hippel-Lindau (VHL) protein which acts as a tumor suppressor by promoting the rapid degradation of HIF-1α (hypoxia-inducible factor 1α) under normoxia. Under hypoxic conditions, HIF-1α is stabilized and activated by the inability of VHL to act resulting in increased transcription of VEGF that is responsible for the high vascularization of RCC (see Turcotte et al, 2003, Zimmer et al, 2004).
(§1) A total of 100 mice were injected, of which 60 were used in the study.
Groups were taken off study when the mean tumor volume in a group was 1300 mm^3 or more. Vehicle-treatment started on Day 0 and continued through Day 35. Compound #10-treatment started on Day 0 and continued through Day 52.
(§2) Tumors were measured twice per week using digital calipers.
[…] The median values were reported.

[1] = tested on: hypoxia-induced VEGF production in HeLa cells; assay: cells; assay type: cell-based, human
RSV = RSV CPE protection assay in Vero cells; assay type: cell-based, respiratory syncytial virus
Influenza A = assay: microbe, parasite or virus in culture; assay type: cell-based, influenza virus
Dengue 2 = Dengue 2 CPE protection assay in Vero E6 cells; assay type: cell-based, dengue virus
HCV genotype 2a replicon = assay: HCV subgenomic replicon assay, genotype 2a; assay type: cell-based; details: Hepatitis C virus
HIV-1 = HIV-1 CPE protection assay in MT-2 cells; assay type: cell-based
Procedure: Antiviral activity against HIV-1 is determined in a human cell line. […] The activity against HIV may also be tested in human peripheral blood mononuclear cells in cell culture.

[2] = 786-O xenograft study: body weight and clinical observations; details: 786-O study, in words
PV strain Mahoney = assay: microbe, parasite or virus in culture; assay type: cell-based, poliovirus
HCV genotype 1b replicon = assay: HCV subgenomic replicon assay, genotype 1b; assay type: cell-based; details: Hepatitis C virus
[3] = Whole-body autoradiography: brain tissue plasma concentration ratios (blood-brain barrier penetration); assay type: in vivo, rats; details: in words
MDCK cells = details: dog
[4] = Caki-1 xenograft study: body weight and clinical observations; assay type: in vivo, mice; details: Caki-1 study
From the text: Body Weight: The mice were weighed once per week.

Adenovirus = Adenovirus CPE protection assay in HeLa cells; assay type: cell-based
HSV-1 = HSV-1 CPE protection assay in Vero cells; assay type: cell-based, herpes simplex virus-1
786-O cells = assay: 786-O renal cell carcinoma xenograft (VHL-negative), tumor volume; assay type: in vivo, mice; details: for Tumor size (mean±SD): PO
Procedure: Both sunitinib and rapamycin are used clinically for treatment of renal cancer.
as §1
Groups were taken off study when the mean tumor volume in a group was 1300 mm^3 or more. Vehicle-treatment started on Day 0 and continued through Day 57. Compound #10-treatment started on Day 0 and continued through Day 88.
as §2
The time to progression to reach a tumor volume 1000 mm^3 was calculated for each mouse. The median values were reported.

[5] = tested on: c-Myc expression in 786-O cells; assay: Western blot of protein expression in 786-O Renal Cancer Cell line (FIG. 7A); assay type: cell-based; details: different dose levels (1 μM and 10 μM), in words
From the text: The Vinculin, c-Myc, Survivin, ornithine decarboxylase (ODC), Cyclin D and pS6 mRNA are cap-dependent mRNAs that are considered difficult to translate. The blots for each mRNA shown were translated via a cap-independent manner with mTOR inhibition (Akt has been inactivated).

Yellow Fever = assay: microbe, parasite or virus in culture; assay type: cell-based, yellow fever virus
MT-2 cells = assay: CC50 in MT-2 cells (antiviral assay panel); assay type: cell-based, human; details: HIV-1 assay line
[6] = human respiratory syncytial virus, Vero

## COc1ccc([C@H]2c3[nH]c4ccc(Cl)cc4c3CCN2C(=O)Oc2ccc(Cl)cc2)cc1 (racemic) [Compound #10]
HeLa cells
  CC50: > 1000 nM
Vero cells
  CC50: > 1000 nM
Cancer in patients; patient having cholangiocarcinoma, after four previous therapeutic modalities
  Clinical outcome (FIG. 22): stabilization for a tumor marker
Cancer in patients; patient having chondrosarcoma, after one previous therapeutic modality
  Clinical outcome (FIG. 21): stabilization and reduction in a number of clinical parameters and tumor markers
Cancer in patients; patient having melanoma, after two previous therapeutic modalities
  Clinical outcome (FIG. 20): stabilization and reduction in a number of clinical parameters and tumor markers
Cancer in patients; patient having thyroid cancer, after three previous therapeutic modalities
  Clinical outcome (FIG. 19): stabilization and reduction in a number of clinical parameters and tumor markers
Vaccinia
  IC50: 40 nM
  IC90: 80 nM
Caki-1 cells
  Median time to reach 1500 mm^3: 39 days
Caki-1 cells; Compound #10 10 mg/kg QD PO, sunitinib 75 mg/kg QD PO, rapamycin 15 mg/kg PO
  Median time for tumors to reach 1000 mm^3: 39 days
Caki-1 cells; Day 35, 10 mg/kg QD
  Tumor size (mean±SD): 866±450 mm^3
Caki-1 cells; Day 35, Compound #10 10 mg/kg QD PO, sunitinib 75 mg/kg QD PO, rapamycin 15 mg/kg PO
  Tumors smaller than those in vehicle-treated mice: 44%
Caki-1 cells; Day 52, 10 mg/kg QD
  Tumor size (mean±SD): 1538±1070 mm^3
[1]
  Inhibition of stress-induced VEGF production (FIG. 1): inhibit stress-induced VEGF production
RSV; [6]
  IC50: 250 nM
  IC90: ≥ 160 nM
RSV; in words
  Activity against respiratory syncytial virus (RSV): potent activity
Influenza A
  Inhibition of influenza virus: did not exhibit any selective inhibition
Influenza A; Influenza A virus, MDCK
  IC50: > 1000 nM
  IC90: > 1000 nM
Dengue 2; Dengue virus, Vero C1008, Dengue 2, (+) RNA, Vero E6, CPE protection
  IC50: > 1000 nM
Dengue 2; Dengue virus, Vero C1008, Dengue 2, Vero E6, CPE protection
  IC90: > 1000 nM
Dengue 2; at the doses tested, in words
  Activity against dengue: inactive
HCV genotype 2a replicon
  IC50: < 3 nM
HIV-1; Human immunodeficiency virus 1, MT2
  IC50: 22 nM
HIV-1; Human immunodeficiency virus 1, MT2, 72 h, human cell line, 3 days post-infection, normalized to cell number after treatment in the absence of infection, read-out: EC50, prevention of cytopathic effect
  EC50: 22 nM
[2]; all mice
  Survival of treated mice: survived until sacrificed
[2]
  Body weight change from initial body weight: did not lose weight
PV strain Mahoney; Enterovirus C, HeLa
  IC50: 0.57 nM
  IC90: 2.8 nM
PV strain Mahoney; Enterovirus C, HeLa, read-out: average IC50
  IC50: 0.6 nM
PV strain Mahoney; infected HeLa cells
  decrease in activity when added at the time of infection: 65 fold
HCV genotype 1b replicon
  IC50: 1 nM
HCV genotype 1b replicon; read-out: average IC50
  IC50: 36 nM
[3]
  Blood-brain barrier penetration: penetrates the blood-brain barrier
MDCK cells
  CC50: > 1000 nM
[4]; Day 8 and Day 14
  Body weight loss from Day 0: 2.2%
[4]; all mice, in words
  Survival of treated mice: survived until sacrificed
[4]; in words
  Body weight change from initial body weight: transiently lost weight
Adenovirus; at the doses tested, in words
  Inhibition of adenovirus: did not inhibit
Adenovirus; unidentified adenovirus, Adenovirus, DNA, HeLa, CPE protection
  IC50: > 1000 nM
Adenovirus; unidentified adenovirus, Adenovirus, HeLa, CPE protection
  IC90: > 1000 nM
Vero E6 cells; Dengue 2 assay line
  CC50: 700 nM
Vero E6 cells; Vaccinia assay line
  CC50: 83 nM
HSV-1; Human alphaherpesvirus 1, HSV-1, DNA, Vero, CPE protection
  IC50: > 1000 nM
HSV-1; Human alphaherpesvirus 1, HSV-1, Vero, CPE protection
  IC90: > 1000 nM
HSV-1; at the doses tested, in words
  Inhibition of herpes simplex virus-1 (HSV-1): did not inhibit
786-O cells; Compound #10 10 mg/kg QD PO, sunitinib 75 mg/kg QD PO, rapamycin 15 mg/kg PO, time on study used if not reached
  Median time for tumors to reach 1000 mm^3: 71 days
786-O cells; Day 57, 10 mg/kg QD
  Tumor size (mean±SD): 945±408 mm^3
786-O cells; Day 57, Compound #10 10 mg/kg QD PO, sunitinib 75 mg/kg QD PO, rapamycin 15 mg/kg PO
  Tumors smaller than those in vehicle-treated mice: 34%
786-O cells; Day 88, 10 mg/kg QD
  Tumor size (mean±SD): 1569±671 mm^3
786-O cells; Mouse 2-10, 10 mg/kg, in words
  Cure (tumor size <60 mm^3, not measurable): cured
[5]
  Suppression of c-Myc expression (FIG. 7A): not completely effective in suppressing c-Myc expression
Yellow Fever; Yellow fever virus, HeLa
  IC50: > 1000 nM
  IC90: > 1000 nM
Yellow Fever; at the doses tested, in words
  Activity against yellow fever: inactive
MT-2 cells
  CC50: 4.1 nM
